These results are taken from PubChem BioAssay (NCI).

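A five-concentration, 48-hour dose response in 96-well plates underlies each endpoint, interpolated linearly between surrounding concentrations. Abbreviation: GI50, concentration required for 50% inhibition of growth. Definition used: TGI = concentration required for complete inhibition of growth.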

Test systems include CCRF-CEM leukemia; SR leukemia; SF-295 CNS; NCI-H522 lung; MCF7 breast; OVCAR-5 ovarian; UACC-257 melanoma; HOP-92 NSCLC; BT-549 breast; EKVX NSCLC.
What all share (test): growth of human tumour cells (NCI), 48 h

`O=C1/C(=C\c2ccc(F)cc2)CN(C(=O)c2ccccc2F)C/C1=C\c1ccc(F)cc1`: the GI50 in the assay on CCRF-CEM leukemia was 0.736 µM; in the assay with SR leukemia, 0.32 µM; with SF-295 CNS, 2.08 µM; with NCI-H522 lung, 1.61 µM; with MCF7 breast, 0.436 µM; in the assay on OVCAR-5 ovarian it was 1.88 µM. Moreover, the GI50 in the assay on UACC-257 melanoma is 1.71 µM; in the assay on HOP-92 NSCLC it was 1.86 µM; in the assay with BT-549 breast, 1.85 µM. The TGI stood at 4.97 µM in the assay on CCRF-CEM leukemia; 3.03 µM with SR leukemia; 5.02 µM with SF-295 CNS; 3.15 µM with NCI-H522 lung; 1.68 µM with MCF7 breast; 4.04 µM in the assay with OVCAR-5 ovarian. Also, the values for the TGI in the assay on UACC-257 melanoma, with HOP-92 NSCLC and in the assay on BT-549 breast were 3.47 µM, 5.63 µM and 3.41 µM, respectively.
As for `O=C(Nc1ccncc1)C(=O)c1cn(S(=O)(=O)c2cccc(Cl)c2)c2ccccc12`, the GI50 in the assay on SF-295 CNS was 2.92 µM; with NCI-H522 lung it was 2.41 µM; in the assay with EKVX NSCLC, 5.16 µM; in the assay on MCF7 breast, 3.63 µM; in the assay on OVCAR-5 ovarian it was 11.5 µM; in the assay on UACC-257 melanoma it was 24.7 µM. Besides, the GI50 in the assay with HOP-92 NSCLC was 3.31 µM; in the assay with BT-549 breast it was 5.85 µM. Moreover, the TGI in the assay on SF-295 CNS was 37.1 µM; in the assay on NCI-H522 lung, 16.9 µM; in the assay on EKVX NSCLC, > 100 µM; in the assay on MCF7 breast, > 100 µM; with OVCAR-5 ovarian, > 100 µM; in the assay on UACC-257 melanoma, > 100 µM. For the same compound, the figures for the TGI with HOP-92 NSCLC and in the assay with BT-549 breast were 23.1 µM and 38.3 µM, respectively.
As to `CC1(C)C(N2CCOCC2)CS1(=O)=O` (stereo not drawn), the TGI in the assay with CCRF-CEM leukemia, with SF-295 CNS, in the assay with NCI-H522 lung, in the assay on EKVX NSCLC, with MCF7 breast and in the assay with OVCAR-5 ovarian was > 10 µM in each case. Besides, the TGI in the assay on UACC-257 melanoma, with HOP-92 NSCLC and in the assay on BT-549 breast was > 10 µM each time.
In the case of `COc1ccc(OC)c(Nc2nc3nonc3nc2Nc2cccc(Br)c2)c1`, the GI50 was 0.608 µM in the assay with CCRF-CEM leukemia; 2.36 µM with SR leukemia; 0.429 µM in the assay with SF-295 CNS; 0.254 µM in the assay on NCI-H522 lung; 1.63 µM in the assay with MCF7 breast; 2.56 µM in the assay with OVCAR-5 ovarian. In addition, the GI50 in the assay with UACC-257 melanoma was 0.508 µM; with HOP-92 NSCLC it was 0.266 µM; in the assay with BT-549 breast, 0.537 µM. The TGI in the assay with CCRF-CEM leukemia is 17.2 µM; in the assay with SR leukemia, 10.9 µM; in the assay on SF-295 CNS it was 3.29 µM; in the assay with NCI-H522 lung it was 0.775 µM; with MCF7 breast, > 100 µM; with OVCAR-5 ovarian it was > 100 µM. Besides, the TGI was 7.37 µM in the assay on UACC-257 melanoma, 3.55 µM with HOP-92 NSCLC and 6.97 µM in the assay on BT-549 breast.
In the case of `CC(C)(C)[Si](C)(C)OCC1OC(n2cnc3c(=O)[nH]cnc32)CC1O` (stereo not drawn), the TGI in the assay on CCRF-CEM leukemia, in the assay with SR leukemia, in the assay on SF-295 CNS, in the assay on NCI-H522 lung, in the assay with EKVX NSCLC and with MCF7 breast was > 100 µM in each case. Besides, the TGI in the assay on OVCAR-5 ovarian, in the assay with UACC-257 melanoma and in the assay with HOP-92 NSCLC was > 100 µM throughout.
For `CCN(CC)CCNC(=O)c1cccc2c1-c1ccccc1C2=O`, the GI50 in the assay with CCRF-CEM leukemia, with SF-295 CNS, in the assay with NCI-H522 lung, in the assay on EKVX NSCLC, with MCF7 breast and with OVCAR-5 ovarian was > 100 µM throughout. The GI50 with UACC-257 melanoma, in the assay with HOP-92 NSCLC and with BT-549 breast was > 100 µM each time. Also, the TGI in the assay on CCRF-CEM leukemia, with SF-295 CNS, in the assay with NCI-H522 lung, in the assay with EKVX NSCLC, in the assay with MCF7 breast and in the assay with OVCAR-5 ovarian was > 100 µM each time. Besides, the TGI in the assay on UACC-257 melanoma, in the assay with HOP-92 NSCLC and in the assay with BT-549 breast was > 100 µM in each case.
In the case of `Cc1ccc(C[As+](c2ccccc2)(c2ccccc2)c2ccccc2)cc1`, the GI50 in the assay with CCRF-CEM leukemia is 1.08 µM; with SR leukemia it was 0.797 µM; in the assay with SF-295 CNS it was 0.753 µM; with NCI-H522 lung it was 0.649 µM; in the assay on MCF7 breast, 0.621 µM; with OVCAR-5 ovarian, 1.74 µM. Besides, the GI50 was 0.279 µM in the assay with UACC-257 melanoma, 0.158 µM in the assay with HOP-92 NSCLC and 0.392 µM in the assay with BT-549 breast. For the same compound, the TGI was 55 µM with CCRF-CEM leukemia; 6.07 µM with SR leukemia; 4.41 µM with SF-295 CNS; 8.38 µM in the assay on NCI-H522 lung; 17.2 µM in the assay on MCF7 breast; > 87.2 µM in the assay on OVCAR-5 ovarian. Further, the figures for the TGI in the assay on UACC-257 melanoma, with HOP-92 NSCLC and with BT-549 breast were 1.75 µM, 0.961 µM and 8.26 µM, respectively.
In the case of `CCCCC(=O)N(c1ccc(Nc2c3ccccc3nc3cc([N+](=O)[O-])ccc23)cc1)S(C)(=O)=O`, the GI50 was 3.65 µM in the assay with CCRF-CEM leukemia; 1.97 µM with SR leukemia; 4.83 µM in the assay with SF-295 CNS; 3.93 µM in the assay on NCI-H522 lung; 0.293 µM with MCF7 breast; 77.6 µM with OVCAR-5 ovarian. Moreover, the GI50 with UACC-257 melanoma is 14.6 µM; with HOP-92 NSCLC, 3.57 µM; with BT-549 breast, 18.4 µM. For the same compound, the TGI is > 100 µM with CCRF-CEM leukemia; > 42.6 µM with SR leukemia; > 100 µM in the assay with SF-295 CNS; 16 µM in the assay on NCI-H522 lung; 9.83 µM in the assay on MCF7 breast; > 100 µM with OVCAR-5 ovarian. In addition, the figures for the TGI with UACC-257 melanoma, in the assay with HOP-92 NSCLC and with BT-549 breast were 62.5 µM, 21.5 µM and 80.6 µM, respectively.
Take `CC(=Nc1ccc(N(C)C)cc1)c1ccccc1`: the TGI was 92.6 µM in the assay with CCRF-CEM leukemia; 49.9 µM in the assay with SR leukemia; > 100 µM in the assay with SF-295 CNS; 40.8 µM in the assay on NCI-H522 lung; > 100 µM in the assay on EKVX NSCLC; 46.9 µM in the assay with MCF7 breast. Besides, the TGI in the assay with OVCAR-5 ovarian was > 100 µM; with BT-549 breast, 33.2 µM.
With `O=S(=O)(NC1=NCCN1C(=S)SN1CCn2c1nsc2=S)c1ccc(Oc2ccccc2)cc1`, the GI50 is 3.7 µM in the assay with SR leukemia; > 100 µM with SF-295 CNS; 26.2 µM in the assay with NCI-H522 lung; > 100 µM with EKVX NSCLC; 25.7 µM with MCF7 breast; > 100 µM in the assay on OVCAR-5 ovarian. Besides, the GI50 was > 100 µM in the assay on UACC-257 melanoma and 74.2 µM with HOP-92 NSCLC. In addition, the TGI was 45.8 µM in the assay on SR leukemia; > 100 µM with SF-295 CNS; 69 µM in the assay with NCI-H522 lung; > 100 µM in the assay with EKVX NSCLC; > 100 µM in the assay on MCF7 breast; > 100 µM in the assay with OVCAR-5 ovarian. The TGI with UACC-257 melanoma and in the assay on HOP-92 NSCLC was > 100 µM in each case.
